Results published in US20180104354A1, “CHIMERIC ANTIGEN RECEPTOR T CELL SWITCHES AND USES THEREOF” (The California Institute for Biomedical Research, priority 2013, published 2018).
Several values for one entry are separate records, joined by “and”; a condition that tells them apart may be missing. Equal values may be shown once. Read-outs that look alike come from different tables or passages of the source.

What was measured:
[1] = system: C4-2 (PSMA+) prostate cancer cells; test: 24 hr cytotoxicity assay of anti-FITC-CAR T cells with P-TriA-FITC, C4-2; assay type: cell-based; conditions: triplicates
Description: (§1) Transduced human effector cells (˜50% transduction efficiency) were co-incubated with target cells at 10:1 (total T cells to target cells) ratio for 24 hr in the presence of varying concentrations of FITC “switches.” Redirected lysis of target cells was determined by CytoTox96 nonradioactive cytotoxicity assay kit (Promega, Madison, Wis.) according to manufacturer's protocol. The percentage of cytotoxicity was calculated by: % cytotoxicity=(Absorbance experimental average−Absorbance spontaneous average)/(absorbance max killing average−Absorbance spontaneous average)×100.
(§2) Human PBMCs were freshly isolated from whole blood of healthy donors by centrifugation with Ficoll-Paque PLUS (GE healthcare, Piscataway, N.J.) density gradient medium according to manufacturer's protocol. Cells were immediately activated with Dynabeads Human […] CD3/CD28 (Life Technologies, Carlsbad, Calif.) at 3:1 (bead to cell) ratio in AIM-V media (Life Technologies) containing 5% human AB serum (Valley Biomedical, Winchester, Va.). Lentiviral production was carried out using HEK293FT cell lines. Viral supernatant was used directly to transduce activated PBMCs via spinoculation in the presence of protamine sulfate and recombinant human IL2 (R&D systems, Minneapolis, Minn.). C4-2, KB, and A549 cell lines were maintained in RPMI-1640, Eagles's Minimum Essential Media, and F-12K medium supplemented with 10% fetal bovine serum, respectively (all from Life Technologies).
FIG. 5B depicts a scheme for synthesis of the TriA-2-[3-(1,3-dicarboxypropyl)ureido] pentanedioic acid linker to be conjugated to FITC. FIG. 5C depicts the results from a 24 hr cytotoxicity assay of anti-FITC-CAR T cells targeting C4-2 (PSMA+) prostate cancer cells with serial dilutions of P-TriA-FITC. Each concentration was carried out in triplicate. Results are shown as average percentage of cytotoxicity.

C4-2 (PSMA+) tumors = test: In vivo efficacy, subcutaneous C4-2 tumors in NSG mice; conditions: s.c. C4-2 tumors
Excerpt: (§3) In brief, subcutaneous C4-2 (PSMA+) tumors were established in non-obese diabetic-severe combined immunodeficiency (NOD-SCID-γ−/−, NSG) mice.

[2] = Pharmacokinetic study of P-TriA-FITC in mice; assay type: in vivo
Excerpt: as §3

Her2 = Her2 (UniProt P04626); test: cell-based or functional assay
KB (FR+) cells = test: In vitro cytotoxicity assay of anti-FITC-CAR-Ts with Folate-FITC, KB; assay type: cell-based
Description: as §1, §2
(§4) FIG. 6B-6C depicts the results from an in vitro cytotoxicity assay of anti-FITC-CAR-Ts co-incubated with KB (FR+) (see FIG. 6B) or A549 (FR−) (see FIG. 6C) target cells in the presence of varying concentrations Folate-FITC. Each concentration was carried out in triplicates. Results are shown as average percentage of cytotoxicity.

A549 (FR−) cells = test: In vitro cytotoxicity assay of anti-FITC-CAR-Ts with Folate-FITC, A549; assay type: cell-based; conditions: Homo sapiens; for cytotoxicity at 320 fM: 0.32 pM; for cytotoxicity at 0.0002 µM: 200 pM; for cytotoxicity at 0.001 µM: 1000 pM; for cytotoxicity at 0.005 µM: 5000 pM
Description: as §1, §2, §4

CD19 [3] = biological target: T1, CD19 (human, UniProt P15391 20-556); test: cell-based or functional assay
T1 sequence (looked up): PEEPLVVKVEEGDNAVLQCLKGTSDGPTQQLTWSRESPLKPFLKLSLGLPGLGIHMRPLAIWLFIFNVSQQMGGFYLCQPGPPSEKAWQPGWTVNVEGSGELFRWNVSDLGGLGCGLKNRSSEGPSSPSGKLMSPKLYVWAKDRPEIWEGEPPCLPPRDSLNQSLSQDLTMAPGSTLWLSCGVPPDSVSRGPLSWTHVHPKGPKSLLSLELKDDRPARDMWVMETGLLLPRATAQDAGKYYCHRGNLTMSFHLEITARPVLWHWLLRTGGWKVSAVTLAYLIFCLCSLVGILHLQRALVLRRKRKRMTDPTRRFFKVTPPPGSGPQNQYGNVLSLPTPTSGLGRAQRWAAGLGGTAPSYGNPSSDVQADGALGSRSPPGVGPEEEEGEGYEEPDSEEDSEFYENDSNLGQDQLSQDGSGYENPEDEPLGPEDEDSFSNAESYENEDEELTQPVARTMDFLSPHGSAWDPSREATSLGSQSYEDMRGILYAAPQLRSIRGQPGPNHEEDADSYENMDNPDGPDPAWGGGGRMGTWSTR

CD19 [4] = biological target: T1, CD19; test: cell-based or functional assay; remark: listed apart in the source

O=C(O)CCC(NC(=O)NC(CCCCn1cc(CCCCCCNC(=O)c2ccc(C(=O)NCCOCCOCCOCCNC(=O)c3ccc4c(c3)C(=O)OC43c4ccc(O)cc4Oc4cc(O)ccc43)cc2)nn1)C(=O)O)C(=O)O (centres unmarked) [P-TriA-FITC, 2-[3-(1,3-dicarboxypropyl)ureido]pentanedioic acid-TriA-FITC]
percentage of cytotoxicity ([1]; 4M5.3 anti-FITC CAR T cells, 0.000512 pM): 3.992% and 3.358% and 4.689% | percentage of cytotoxicity ([1]; 4M5.3 anti-FITC CAR T cells, 0.012800 pM): 3.555% and 1.304% and 1.206% | percentage of cytotoxicity ([1]; 4M5.3 anti-FITC CAR T cells, 0.320000 pM): 2.224% and 2.545% and 2.965% | percentage of cytotoxicity ([1]; 4M5.3 anti-FITC CAR T cells, 8.000000 pM): 9.173% and 10.76% and 7.583% | percentage of cytotoxicity ([1]; 4M5.3 anti-FITC CAR T cells, 40.000000 pM): 52.56% and 55.81% and 53.56% | percentage of cytotoxicity ([1]; 4M5.3 anti-FITC CAR T cells, 200.000000 pM): 77.22% and 76.53% and 73.92% | percentage of cytotoxicity ([1]; 4M5.3 anti-FITC CAR T cells, 1000.000000 pM): 82.62% and 79.94% and 78.91% | percentage of cytotoxicity ([1]; 4M5.3 anti-FITC CAR T cells, 5000.000000 pM): 82.04% and 77.45% and 78.01% | percentage of cytotoxicity ([1]; Non-transduced T cells, 0.000512 pM): 1.418% and 0.8462% and 1.052% | percentage of cytotoxicity ([1]; Non-transduced T cells, 0.012800 pM): 1.632% and 0.1496% and 0.8552% | percentage of cytotoxicity ([1]; Non-transduced T cells, 0.320000 pM): 0.1943% and 0.5515% and −0.1898% | percentage of cytotoxicity ([1]; Non-transduced T cells, 8.000000 pM): 1.409% and 0.4622% and 0.5515% | percentage of cytotoxicity ([1]; Non-transduced T cells, 40.000000 pM): −1.11% and −0.5828% and 1.177% | percentage of cytotoxicity ([1]; Non-transduced T cells, 200.000000 pM): −0.5292% and 0.5069% and −0.422% | percentage of cytotoxicity ([1]; Non-transduced T cells, 1000.000000 pM): 0.02456% and 0.09601% and 0.04242% | percentage of cytotoxicity ([1]; Non-transduced T cells, 5000.000000 pM): 1.052% and −0.9132% and 0.1139% | Tumor response (C4-2 (PSMA+) tumors; FITC-CART cells (FITC-E2) i.p. plus switch 1 mg/kg i.v. daily for 10 days): tumors had regressed | Tumor response (C4-2 (PSMA+) tumors; switch only, no CART cells): tumor growth continued | intravenous (IV) half-life t1/2 [2]: 1.08 ± 0.14 h

FITC-anti-Her2 antibody CAR-T switch with FITC conjugated at LC S202pAcF (Fab based on Trastuzumab)
% cytotoxicity; 0.01 pM switch; MDA MB231 cells (Her2): 0% | % cytotoxicity; 0.1 pM switch; MDA MB231 cells (Her2): 0% | % cytotoxicity; 100 pM switch; MDA MB231 cells (Her2): 48% | EC50 of cytotoxicity; SKBR3 cells (Her2): 8 to 20 nM

Nc1nc2ncc(CNc3ccc(C(=O)N[C@H](CCC(=O)NCCNC(=S)Nc4ccc5c(c4)C(=O)OC54c5ccc(O)cc5Oc5cc(O)ccc54)C(=O)O)cc3)nc2c(=O)[nH]1 [FITC-folate switch]
cytotoxicity at 1.6 pM (KB (FR+) cells): 16.5% | cytotoxicity at 8 pM (KB (FR+) cells): 37.1% | cytotoxicity at 40 pM (KB (FR+) cells): 68.1% | cytotoxicity at 0.0002 µM (KB (FR+) cells): 74.6% | cytotoxicity at 0.001 µM (KB (FR+) cells): 77.1% | cytotoxicity at 0.005 µM (KB (FR+) cells): 77% | cytotoxicity at 320 fM (KB (FR+) cells): 8.3% | cytotoxicity at 320 fM (KB (FR+) cells; T-cell, KB (FR+), non-transduced T cells, 0.32 pM): 2.27% | cytotoxicity at 1.6 pM (KB (FR+) cells; T-cell, KB (FR+), non-transduced T cells, 1.6 pM): 3.01% | cytotoxicity at 8 pM (KB (FR+) cells; T-cell, KB (FR+), non-transduced T cells, 8 pM): 2.19% | cytotoxicity at 40 pM (KB (FR+) cells; T-cell, KB (FR+), non-transduced T cells, 40 pM): 2.88% | cytotoxicity at 0.0002 µM (KB (FR+) cells; T-cell, KB (FR+), non-transduced T cells, 200 pM): 2.32% | cytotoxicity at 0.001 µM (KB (FR+) cells; T-cell, KB (FR+), non-transduced T cells, 1000 pM): 2.38% | cytotoxicity at 0.005 µM (KB (FR+) cells; T-cell, KB (FR+), non-transduced T cells, 5000 pM): 2.04% | cytotoxicity at 320 fM (A549 (FR−) cells; 4M5.3 CAR-T): 0.957% | cytotoxicity at 8 pM (A549 (FR−) cells; 4M5.3 CAR-T): 0.765% | cytotoxicity at 40 pM (A549 (FR−) cells; 4M5.3 CAR-T): 2.55% | cytotoxicity at 0.0002 µM (A549 (FR−) cells; 4M5.3 CAR-T): 5.78% | cytotoxicity at 0.001 µM (A549 (FR−) cells; 4M5.3 CAR-T): 5.87% | cytotoxicity at 0.005 µM (A549 (FR−) cells; 4M5.3 CAR-T): 3.15% | cytotoxicity at 1.6 pM (A549 (FR−) cells; 4M5.3 CAR-T): 0.527% | cytotoxicity at 320 fM (A549 (FR−) cells; non-transduced T cells): -0.986% | cytotoxicity at 8 pM (A549 (FR−) cells; non-transduced T cells): -1.05% | cytotoxicity at 40 pM (A549 (FR−) cells; non-transduced T cells): -1.52% | cytotoxicity at 0.0002 µM (A549 (FR−) cells; non-transduced T cells): -0.96% | cytotoxicity at 0.001 µM (A549 (FR−) cells; non-transduced T cells): -1.16% | cytotoxicity at 0.005 µM (A549 (FR−) cells; non-transduced T cells): -1.61% | cytotoxicity at 1.6 pM (A549 (FR−) cells; non-transduced T cells): -1.02%

B1: anti-CD19 Fab-FITC switch LG68X (pAzF at glycine 68 of the light chain) (Fab, V domains shown)
VH: EVKLQESGPGLVAPSQSLSVTCTVSGVSLPDYGVSWIRQPPRKGLEWLGVIWGSETTYYNSALKSRLTIIKDNSKSQVFLKMNSLQTDDTAIYYCAKHYYYGGSYAMDYWGQGTSVTVSS
VL: DIQMTQTTSSLSASLGDRVTISCRASQDISKYLNWYQQKPDGTVKLLIYHTSRLHSGVPSRFSGSGSXTDYSLTISNLEQEDIATYFCQQGNTLPYTFGGGTKLEIKR
modifications: p-azidophenylalanine (pAzF) at LC G68, clicked to cyclooctyne-FITC linker
Cytotoxicity EC50; FITC-E2 CAR-T; NALM6 cells (CD19 [3]): 3.53 pM | % cytotoxicity; 0.01 pM switch; FITC-E2 CAR-T; NALM6 cells (CD19 [4]): 0% | % cytotoxicity; 0.1 pM switch; FITC-E2 CAR-T; NALM6 cells (CD19 [4]): 3.85% | % cytotoxicity; 1 pM switch; FITC-E2 CAR-T; NALM6 cells (CD19 [4]): 17.8% | % cytotoxicity; 10 pM switch; FITC-E2 CAR-T; NALM6 cells (CD19 [4]): 56.7% | % cytotoxicity; 100 pM switch; FITC-E2 CAR-T; NALM6 cells (CD19 [4]): 78.1% | % cytotoxicity; 1000 pM switch; FITC-E2 CAR-T; NALM6 cells (CD19 [4]): 74.5%

B2: anti-CD19 Fab-FITC switch HS74X (pAzF at serine 74 of the heavy chain) (Fab, V domains shown)
VH: EVKLQESGPGLVAPSQSLSVTCTVSGVSLPDYGVSWIRQPPRKGLEWLGVIWGSETTYYNSALKSRLTIIKDNXKSQVFLKMNSLQTDDTAIYYCAKHYYYGGSYAMDYWGQGTSVTVSS
VL: DIQMTQTTSSLSASLGDRVTISCRASQDISKYLNWYQQKPDGTVKLLIYHTSRLHSGVPSRFSGSGSGTDYSLTISNLEQEDIATYFCQQGNTLPYTFGGGTKLEIKR
modifications: pAzF at HC S74, clicked to cyclooctyne-FITC linker
Cytotoxicity EC50; FITC-E2 CAR-T; NALM6 cells (CD19 [3]): 0.97 pM | % cytotoxicity; 0.01 pM switch; FITC-E2 CAR-T; NALM6 cells (CD19 [4]): 0% | % cytotoxicity; 0.1 pM switch; FITC-E2 CAR-T; NALM6 cells (CD19 [4]): 21.4% | % cytotoxicity; 1 pM switch; FITC-E2 CAR-T; NALM6 cells (CD19 [4]): 47.6%
